This is an account of results in patent publication EP0500785B1, “A HUMAN T CELL REACTIVE FELINE PROTEIN (TRFP) ISOLATED FROM HOUSE DUST AND USES THEREFOR” (IMMULOGIC PHARMACEUTICAL CORPORATION, priority 1989, dated 2002).

In the experiment the test system is TRFP primed T cell cultures. The experiment can be described thus: T cell proliferation assay (tritiated thymidine incorporation) of TRFP-primed T cells restimulated with allergens or peptides. It is filed as cell-based, human. On the procedure: Peripheral blood mononuclear cells (PBMC) were purified from 60 ml of heparinized blood from cat allergic patients. PBMC were subsequently treated as described below, although in individual cases, the length of time of cultivation with IL-2 and/or IL-4 and the specific peptides used for stimulation varied.
10 ml of PBMC from patient 131 at 10^6/ml were cultured at 37°C for 7 days in the presence of 5 micrograms purified TRFP/ml RPMI-1640 supplemented with 5% pooled human AB serum. Viable cells were purified by Ficoll-Hypaque centrifugation and cultured for three weeks at 5 units recombinant human IL-2/ml and 5 units recombinant human IL-4/ml. The resting T cells were then restimulated (secondary) with 5 micrograms TRFP at 2 x 10^5/ml in the presence of irradiated (3500 Rads) autologous PBMC at a concentration of 5 x 10^5/ml for three days, purified by Ficoll-Hypaque centrifugation and grown in 5 units IL-2 and 5 units IL-4/ml for two weeks. For assay, 2 x 10^4 resting secondary T cells were restimulated (tertiary) in the presence of 5 x 10^4 irradiated (3500 Rads) autologous PBMC or 2 x 10^4 transformed B cells (20,000 Rads) with various concentrations of allergens or their fragments in a volume of 200 microliters in a 96-well round bottom assay plates for 3 days. Each well then received 1 microCurie tritiated (methyl) thymidine for 16 hours. The counts incorporated were collected onto glass fiber filters and processed for liquid scintillation counting.
Antigens used: T cell reactive feline protein (TRFP), Hollister-Stier cat epithelium skin test reagent (CST), IPC ragweed pollen extract (pollen), and synthetic peptides derived from the TRFP protein sequence (See Figures 6 and 7). Significant T cell proliferation is generally regarded as greater than 2.5 times the media control (T cells and antigen presenting cells alone).
Alternatively, PBMC were treated as follows: the primary stimulated cells were cultured in IL-2/IL-4 for two weeks. The resting T cells derived from this culture were tested in a secondary assay with some, but not all, of the above allergens. […] This type of epitope analysis has allowed the definition of T cell epitopes present in TRFP.
(In general: Incorporation of labelled thymidine or its analogues reports DNA synthesis.)

Setting [1] is: Chain #1 TRFP peptides, average cpm with antigen divided by cpm of T cells and antigen presenting cells alone, responding patients, SI ≥ 2.5 positive.
Setting [2] is: Chain #1 TRFP peptides, cat allergic patients, average SI of all responding patients multiplied by percent of patients with a positive response.
The mark [3] stands for this setting: Chain #2 TRFP peptides, cat allergic patients, average SI of responding patients multiplied by percent positive.
Setting [4] is: Chain #2 TRFP peptides, cat allergic patients, average of responding patients.

On to “Fel 30-2: TRFP chain 1 peptide, amino acids 25 - 48 (VAQYKALPVVLENARILKNCVDAK; UniProt P30438 47-70, looked up, fragment)”, for which the SI under setting [1] came to 4.2. The PI under setting [2] is 248.
Under setting [1], “Fel 14-4: TRFP chain 1 peptide, amino acids 26 - 36 (AQYKALPVVLE; UniProt P30438 48-58, looked up, fragment)” displayed an SI of 6.0. Further, the PI under setting [2] was found to be 474.
Under setting [3], “Fel 31-2: TRFP chain 2 peptide, amino acids 14 - 39 (FFAVANGNELLLDLSLTKVNATEPER; UniProt P30440 31-56, looked up, fragment)” displayed a PI of 599. In addition, the SI under setting [4] is reported as 8.1.
On to “Fel 15: TRFP chain 1 peptide, amino acids 44 - 60 (CVDAKMTEEDKENALSV; UniProt P30438 66-82, looked up, fragment)”, for which the SI under setting [1] is given as 11.0. Further, the PI under setting [2] stood at 440.
On the same counts, the results for “Fel 3-11: TRFP chain 1 peptide, amino acids 18 - 30 (PDEYVEQVAQYKA; UniProt P30438 40-52, looked up, fragment)” are 10.4 and 863.
On the same counts, the results for “Fel 3-15: TRFP chain 1 peptide, amino acids 18 - 29 (PDEYVEQVAQYK; UniProt P30438 40-51, looked up, fragment)” are 10.4 and 1040.
On the same counts, the results for “Fel 8-1: TRFP chain 1 peptide, amino acids 5 - 33 (AVKRDVDLFLTGTPDEYVEQVAQYKALPV; UniProt P30438 27-55, looked up, fragment)” are 15.1 and 1374.
With “Fel 32-1: TRFP chain 2 peptide, amino acids 12 - 24 (DVFFAVANGNELL; UniProt P30440 29-41, looked up, fragment)”, the PI under setting [3] came out at 442. The SI under setting [4] is on record as 6.6.
The substance “Fel 8-2: TRFP chain 1 peptide, amino acids 6 - 33 (VKRDVDLFLTGTPDEYVEQVAQYKALPV; UniProt P30438 28-55, looked up, fragment)” had an SI under setting [1] of 15.2. Moreover, the PI under setting [2] is reported as 1353.
On the same counts, the results for “Fel 30-8: TRFP chain 1 peptide, amino acids 28 - 55 (YKALPVVLENARILKNCVDAKMTEEDKE; UniProt P30438 50-77, looked up, fragment)” are 4.1 and 262.
For the substance “Fel 32-2: TRFP chain 2 peptide, amino acids 14 - 24 (FFAVANGNELL; UniProt P30440 31-41, looked up, fragment)”, the PI under setting [3] turned out to be 424. The SI under setting [4] stood at 5.3.
Regarding “Fel 30-3: TRFP chain 1 peptide, amino acids 25 - 47 (VAQYKALPVVLENARILKNCVDA; UniProt P30438 47-69, looked up, fragment)”, the SI under setting [1] came to 4.8. Further, under setting [2], the PI was found to be 230.
Under setting [3], “Fel 31-5: TRFP chain 2 peptide, amino acids 14 - 36 (FFAVANGNELLLDLSLTKVNATE; UniProt P30440 31-53, looked up, fragment)” showed a PI of 539. The substance further yielded an SI under setting [4] of 7.6.
Substance “Fel 30-7: TRFP chain 1 peptide, amino acids 26 - 55 (AQYKALPVVLENARILKNCVDAKMTEEDKE; UniProt P30438 48-77, looked up, fragment)” returned an SI under setting [1] of 5.3. The substance further yielded a PI under setting [2] of 339.
On the same counts, the results for “Fel 1-2: TRFP chain 1 peptide, amino acids 1 - 17 (EICPAVKRDVDLFLTGT; UniProt P30438 23-39, looked up, fragment)” are 7.4 and 311.
Substance “Fel 31-7: TRFP chain 2 peptide, amino acids 15 - 36 (FAVANGNELLLDLSLTKVNATE; UniProt P30440 32-53, looked up, fragment)” registered a PI under setting [3] of 267. Moreover, the SI under setting [4] worked out at 5.8.
Under setting [1], “Fel 30-4: TRFP chain 1 peptide, amino acids 29 - 55 (KALPVVLENARILKNCVDAKMTEEDKE; UniProt P30438 51-77, looked up, fragment)” returned an SI of 11.6. Besides, under setting [2], the PI worked out at 1079.
On the same counts, the results for “Fel 30-5: TRFP chain 1 peptide, amino acids 29 - 54 (KALPVVLENARILKNCVDAKMTEEDK; UniProt P30438 51-76, looked up, fragment)” are 11.0 and 792.
On the same counts, the results for “Fel 23: TRFP chain 1 peptide, amino acids 51 - 66 (EEDKENALSVLDKIYT; UniProt P30438 73-88, looked up, fragment)” are 6.6 and 343.
The substance “Fel 31-4: TRFP chain 2 peptide, amino acids 14 - 37 (FFAVANGNELLLDLSLTKVNATEP; UniProt P30440 31-54, looked up, fragment)” registered a PI under setting [3] of 622. Under setting [4], this substance had an SI of 8.4.
“Fel 31-1: TRFP chain 2 peptide, amino acids 14 - 40 (FFAVANGNELLLDLSLTKVNATEPERT; UniProt P30440 31-57, looked up, fragment)” gave a PI under setting [3] of 733. Under setting [4], the SI turned out to be 9.4.
“Fel 14-5: TRFP chain 1 peptide, amino acids 27 - 36 (QYKALPVVLE; UniProt P30438 49-58, looked up, fragment)”: the SI under setting [1] stood at 5.4. Further, the PI under setting [2] is 286.
As for “Fel 31-6: TRFP chain 2 peptide, amino acids 15 - 40 (FAVANGNELLLDLSLTKVNATEPERT; UniProt P30440 32-57, looked up, fragment)”, the PI under setting [3] came to 295. The SI under setting [4] worked out at 4.4.
Under setting [1], “Fel 3-13: TRFP chain 1 peptide, amino acids 18 - 28 (PDEYVEQVAQY; UniProt P30438 40-50, looked up, fragment)” registered an SI of 11.5. This substance also yielded a PI under setting [2] of 690.
For “Fel 14-1: TRFP chain 1 peptide, amino acids 23 - 36 (EQVAQYKALPVVLE; UniProt P30438 45-58, looked up, fragment)”, the SI under setting [1] is 9.9. This substance also yielded a PI under setting [2] of 871.
In the case of “Fel 3-1: TRFP chain 1 peptide, amino acids 18 - 33 (PDEYVEQVAQYKALPV; UniProt P30438 40-55, looked up, fragment)”, the SI under setting [1] was determined as 9.4. Under setting [2], the PI is 638.
In the same order, the values of “Fel 14-2: TRFP chain 1 peptide, amino acids 29 - 42 (KALPVVLENARILK; UniProt P30438 51-64, looked up, fragment)” are 5.6 and 336.
